This note sets out measurements from patent US20220136016A1, “MODIFIED CHLORAMPHENICOL […] AND BIOSYNTHESIS METHOD OF MAKING ESTERS USING SAME” (UNIVERSITY OF TENNESSEE RESEARCH FOUNDATION, priority 2020, published 2022).

First the molecules themselves.
B1: CATec3 F97W Y20F: CATec3 with Y20F mutation in combination with F97W (protein, UniProt P00484 1-213, looked up, variant Y20F F97W)
Chloramphenicol …: MNYTKFDVKNWVRREHFEFFRHRLPCGFSLTSKIDITTLKKSLDDSAYKFYPVMIYLIAQAVNQFDELRMAIKDDELIVWDSVDPQFTVFHQETETWSALSCPYSSDIDQFMVNYLSVMERYKSDTKLFPQGVTPENHLNISALPWVNFDSFNLNVANFTDYFAPIITMAKYQQEGDRLLLPLSVQVHHAVCDGFHVARFINRLQELCNSKLK
B2: CATec3: wild type CAT, type A, Escherichia coli; expressed in strain HSCT2107 (protein, listed as Escherichia coli)
chain: MNYTKFDVKNWVRREHFEFYRHRLPCGFSLTSKIDITTLKKSLDDSAYKFYPVMIYLIAQAVNQFDELRMAIKDDELIVWDSVDPQFTVFHQETETFSALSCPYSSDIDQFMVNYLSVMERYKSDTKLFPQGVTPENHLNISALPWVNFDSFNLNVANFTDYFAPIITMAKYQQEGDRLLLPLSVQVHHAVCDGFHVARFINRLQELCNSKLK
modifications: SITE (1)..(213) CAT3_ECOLX, Type A
notes: wild type CAT, type A, Escherichia coli; expressed in strain HSCT2107
B3: CATec3 F97W: comparative CATec3 with F97W mutation (protein, UniProt P00484 1-213, looked up, variant F97W)
Chloramphenicol …: MNYTKFDVKNWVRREHFEFYRHRLPCGFSLTSKIDITTLKKSLDDSAYKFYPVMIYLIAQAVNQFDELRMAIKDDELIVWDSVDPQFTVFHQETETWSALSCPYSSDIDQFMVNYLSVMERYKSDTKLFPQGVTPENHLNISALPWVNFDSFNLNVANFTDYFAPIITMAKYQQEGDRLLLPLSVQVHHAVCDGFHVARFINRLQELCNSKLK
B4: CAT_GEO: wild type CAT, type A, Geomicrobium sp. (protein, listed as Geomicrobium sp.)
chain: MTFNPITLENWERKEYFNHYLNQQTTFSMTTDIEISSFKAAIKRKGYKFYPTFIYMVTEVINANESFRISFNEEGKLGYWEKLIPLYTVFDDQKQSFSNLWTDSTGNVLTFQEDYDRDVAEYNHIGGLFPKTPIPANTFPISMIPWNSFSGFNLNVGNGGNFLLPIITAGKYYSKGTATYLPVSLQVHHAVCDGYHAASFMNQLQELANTTNEWL
modifications: SITE (1)..(215) CAT_GEO, Type A

The target in the first data set is CATec3 Y20F (Escherichia coli, UniProt P00484, Y20F).
Test: not given
Conditions: not given
Format: biochemical.
Butanol: the kcat (usually the number of substrate molecules converted per active site and unit of time at saturation) worked out at 1.9 ± 0.4 s⁻¹.

Staying with this data set, now noted: CATec3 Y20F, 50° C., 2 mM acetyl-CoA; average±standard deviation.
Turning to `COc1cccc(CO)c1` [3-Methoxybenzyl alcohol], the Km – broadly, the concentration of substrate that gives half-maximal velocity – was 10 ± 1.2 mM and the kcat was 18.8 ± 0.9 s⁻¹.

With `CC/C=C\CCO` [3-cis-Hexen-1-ol], the kcat amounted to 2.3 ± 0.2 s⁻¹.

With `OCc1ccccc1` [Benzyl alcohol], the Michaelis-Menten constant (Km) was found to be 12.2 ± 1.6 mM and the kcat came to 1.6 ± 0.1 s⁻¹.

As for `O=C(N[C@H](CO)[C@H](O)c1ccc([N+](=O)[O-])cc1)C(Cl)Cl` [Chloramphenicol], the Km was 0.2 ± 0.05 mM and the kcat is 105.5 ± 6.9 s⁻¹.

Consider `CC(C)=CCCC(C)CCO` (centres unmarked) [Citronellol], for which the Km was determined as 3.2 ± 0.3 mM and the kcat stood at 7.7 ± 0.2 s⁻¹.

On to `CCO` [Ethanol], for which the kcat was determined as 0.8 ± 1.0 s⁻¹.

Regarding `OCc1ccco1` [Furfuryl alcohol], the Km is 37.1 ± 9.8 mM and the kcat stood at 1.1 ± 0.1 s⁻¹.

Turning to `CC(C)=CCC/C(C)=C/CO` [Geraniol], the Km was found to be 4.1 ± 0.4 mM and the kcat was 8.0 ± 0.2 s⁻¹.

For the molecule `CCCCCCO` [Hexanol], the Km was 29.2 ± 4 mM and the kcat turned out to be 6.4 ± 0.4 s⁻¹.

Take `CC(C)CCO` [Isoamyl alcohol]: the Km is 59.9 ± 26.6 mM and the kcat is 2.8 ± 0.3 s⁻¹.

Regarding `CC(C)CO` [Isobutanol], the kcat worked out at 2.3 ± 0.1 s⁻¹.

With `CC(C)=CCC/C(C)=C\CO` [Nerol], the Km is 4.1 ± 0.8 mM and the kcat came to 2.2 ± 0.04 s⁻¹.

For the molecule `CCCCCO` [Pentanol], the Km came out at 64.7 ± 33.6 mM and the kcat stood at 3.9 ± 1.0 s⁻¹.

With `OCCc1ccccc1` [Phenylethyl alcohol], the Km is 10.6 ± 0.4 mM and the kcat was 6.1 ± 0.1 s⁻¹.

For `CC(C)=CCO` [Prenol], the kcat worked out at 2.7 ± 0.3 s⁻¹.

The same data set, now with this note: CATec3 Y20F, 50° C., 2 mM acetyl-CoA; average±standard deviation; read-out: KM.
For `CC/C=C\CCO` [3-cis-Hexen-1-ol], the Km was 6.4 ± 2.2 mM.

Tested on in the next data set: not listed separately
Nature of the data set: Melting temperature (Tm) of purified His-tagged CATs. Format: physicochemical. The conditions noted are these: purified CAT.
Description: To determine in vitro melting temperatures and catalytic efficiencies, His-tagged CATs were purified and characterized using know methods. In the 5,5′-dithiobis-2-nitrobenzoic acid (DTNB) assay, final enzyme concentrations of 0.05-0.1 μg/mL and 5-10 μg/mL were used for the reactions with chloramphenicol and alcohols, respectively. […] The enzyme reactions were held at 50° C. in a BioTek microplate reader for at least 30 minutes with measurements every one minute. The kinetic parameters were calculated using a non-linear regression method known to one of skill in the art.
For the molecule B1, the “melting temperature (Tm)” value is 85.5 °C.

For B2, the “melting temperature (Tm)” value was found to be 80.2 °C.

Take B3: the “melting temperature (Tm)” value was found to be 81.2 °C.

As for B4, the “melting temperature (Tm)” value was 43.5 °C.
